The values that follow are results of earlier work, collected in patent US20080014261A1, “Non-narcotic biphasic release compositions and methods for treatment of coughing, sneezing, rhinorrhea, and/or nasal obstruction” (priority 2006, published 2008).

For the series the following is noted: in vivo.

Turning to `COc1ccccc1OCC(O)CO` (stereo not shown) [Guaifenesin, 3-(2-methoxyphenoxy)-1,2 propanediol], the plasma half life entry is on record as “one”.
